The source of these data is patent US5869501A, “Amidinonaphthyl derivative or salt thereof” (Yamanouchi Pharmaceutical Co. Ltd, priority 1994, dated 1999).

Structures are written as SMILES. Counter-ions that a name gives are not always drawn. Like-named read-outs stand apart in the source and are kept apart here. A value given as a limit tells only on which side of the number the result lay.

Holding throughout (assay type): biochemical
One experiment concerns the target T1, bovine thrombin (Bos taurus, UniProt P00735).
T1 construct: clotting of human fibrinogen
The experiment can be described thus: Measurement of coagulation time by bovine thrombin (human fibrinogen). Particulars: pH=7.40, read-out: CT2 (dose which extends the blood coagulation time twice), bovine thrombin. As for the experimental part:
2) Test on the measurement of coagulation time by bovine thrombin.
Human fibrinogen (freeze-dried preparation, manufactured by Sigma) is dissolved in 0.05M Tris-HCl buffer (pH=7.40) to prepare a 6 mg/ml solution. Bovine thrombin (500 IU/vial, manufactured by Mochida Pharmaceutical) is dissolved in physiological saline to prepare thrombin solutions of various concentrations. A 100 μl portion of the aforementioned fibrinogen solution was mixed with 100 μl of physiological saline, the mixture was incubated at 37° C. for 3 minutes. Then, 100 μl of the aforementioned thrombin solution was added to measure the coagulation time and to determine concentration of thrombin which causes coagulation after about 20 seconds. Next, 100 μl of each drug which has been diluted with physiological saline was added to 100 μl of the aforementioned fibrinogen solution to measure the coagulation time. KC4A manufactured by Amelung was used for the measurement of the coagulation time. A dose which extends the blood coagulation time twice (to be referred to as CT2 hereinafter) was calculated based on the blood coagulation time when 100 μl of physiological saline was added.

The target of experiment [1] is T2, human activated blood coagulation factor X (Homo sapiens, UniProt P00742).
T2 construct: purchased Cosmo Bio
T2 sequence (P00742 235-488 limits assumed): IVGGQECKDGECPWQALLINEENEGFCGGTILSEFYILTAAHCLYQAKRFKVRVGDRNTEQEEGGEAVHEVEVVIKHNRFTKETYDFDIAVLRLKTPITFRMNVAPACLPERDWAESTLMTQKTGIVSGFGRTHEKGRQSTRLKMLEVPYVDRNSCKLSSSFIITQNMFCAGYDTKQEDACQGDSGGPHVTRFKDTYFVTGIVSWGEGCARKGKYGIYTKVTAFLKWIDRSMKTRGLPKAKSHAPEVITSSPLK
T2 sequence (P00742 41-179 partner limits assumed): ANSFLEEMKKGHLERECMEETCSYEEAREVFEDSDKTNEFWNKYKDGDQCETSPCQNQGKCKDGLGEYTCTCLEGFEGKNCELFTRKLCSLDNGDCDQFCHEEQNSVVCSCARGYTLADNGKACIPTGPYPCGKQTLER
Put plainly: Measurement of blood coagulation time by human activated blood coagulation factor X (human plasma). Particulars: read-out: CT2 (dose which extends the blood coagulation time twice), human activated blood coagulation factor X. On the procedure: 1) Test on the measurement of blood coagulation time by human activated blood coagulation factor X.
Human activated blood coagulation factor X (manufactured by Cosmo Bio) is dissolved in 0.05M Tris-HCl buffer (pH=7.40) to prepare a 0.05 unit/ml solution. A blood sample collected using 1/10 volume of 3.8% sodium citrate was centrifuged at 3,000 rpm for 10 minutes. Then, 90 μl portion of the thus separated human plasma was mixed with 10 μl of each drug which has been diluted by dissolving in physiological saline and 50 μl of the aforementioned activated blood coagulation factor X solution, and the mixture was incubated at 37° C. for 3 minutes. Then, 100 μl of 20 mM CaCl2 solution was added to measure the blood coagulation time. KC4A manufactured by Amelung was used for the measurement of blood coagulation time. A dose which extends the blood coagulation time twice (to be referred to as CT2 hereinafter) was calculated based on the blood coagulation time when 10 μl of physiological saline was added instead of the drug.

The target in experiment [2] is T2, human activated blood coagulation factor X. The experiment can be described thus: Measurement of enzyme inhibition by a synthetic substrate method (S-2222). Particulars: 37° C., 15 minutes, absorbance at 405 nm. On the procedure:
3) Test on the measurement of enzyme inhibition by a synthetic substrate method.
Human activated blood coagulation factor X (manufactured by Cosmo Bio) was dissolved in 0.02M Tris-HCl buffer (pH=7.40) containing 0.15M sodium chloride to prepare a 6 units/ml solution. A synthetic substrate S-2222 (manufactured by Daiichi Kagaku Yakuhin) was dissolved in purified water to prepare a 0.75 mg/ml solution. A 25 μl portion of each drug which has been prepared by dissolving the drug in physiological saline was mixed with 170 μl of 0.05M Tris-HCl buffer (pH=8.40) and 50 μl of the S-2222 solution. Then, 10 μl of the human activated blood coagulation factor X solution was added and the mixture was incubated at 37° C. for 15 minutes. The reaction was stopped by adding 50 μl of 60% acetic acid and then the absorbance at 405 nm was measured to calculate IC50 value. Model 3550 manufactured by Bio-Rad was used for the measurement. A reaction mixture prepared by adding physiological saline instead of the drug and adding 60% acetic acid prior to the addition of the human activated blood coagulation factor X solution was used as a control. Concentration of the drug when 50% of the reaction was inhibited (to be referred to as IC50 hereinafter) was calculated based on the control.

[3] abbreviates: human plasma, 37° C., 3 minutes incubation.

Regarding `CCOC(=O)C(=O)N(Cc1ccc2ccc(C(=N)N)cc2c1)c1ccc(OC2CCN(C(C)=N)CC2)cc1` [Example 23, ethyl N-[4-[(1-acetoimidoyl-4-piperidyl)oxy]phenyl]-N-[(7-amidino-2-naphthyl)methyl]oxamate dihydrochloride], the IC (2-fold clotting time) on bovine thrombin was more than 100 µM; in experiment [1] (setting [3]), 0.11 µM.
Consider `CCS(=O)(=O)N(Cc1ccc2ccc(C(=N)N)cc2c1)c1ccc(OC2CCN(C(C)=N)CC2)cc1` [Example 28, N-[4-[(1-Acetoimidoyl-4-piperidyl)oxy]phenyl]-N-[(7-amidino-2-naphthyl)methyl]ethanesulfonamide dihydrochloride], for which the IC (2-fold clotting time) is more than 100 µM at bovine thrombin and 0.05 µM in experiment [1] (setting [3]).
As for `CC(=N)N1CCC(Oc2ccc(NCc3ccc4ccc(C(=N)N)cc4c3)cc2)CC1` [Example 31, 7-[[4-[(1-Acetoimidoyl-4-piperidyl)oxy]anilino]methyl]-2-naphthamidine trihydrochloride], the IC (2-fold clotting time) on bovine thrombin was more than 100 µM; in experiment [1] (setting [3]) it was 0.09 µM.
With `COc1ccccc1C(=O)N(Cc1ccc2ccc(C(=N)N)cc2c1)c1ccc(OC2CCN(C(C)=N)CC2)cc1` [Example 33, N-[4-[(1-Acetoimidoyl-4-piperidyl)oxy]phenyl]-N-[(7-amidino-2-naphthyl)methyl]-2-methoxybenzamide dihydrochloride], the IC (2-fold clotting time) on bovine thrombin was more than 100 µM; in experiment [1] (setting [3]) it was 0.14 µM.
With `CC(=N)N1CCC(Oc2ccc(N(Cc3ccc4ccc(C(=N)N)cc4c3)C(=O)c3c(F)cccc3F)cc2)CC1` [Example 47, N-[4-[(1-Acetoimidoyl-4-piperidyl)oxy]phenyl]-N-[(7-amidino-2-naphthyl)methyl]-2,6-difluorobenzamide dihydrochloride], the results for the IC (2-fold clotting time) (on bovine thrombin; in experiment [1] (setting [3])) were more than 100 µM and 0.13 µM, respectively.
For `CCOC(=O)NS(=O)(=O)N(Cc1ccc2ccc(C(=N)N)cc2c1)c1ccc(OC2CCN(C(C)=N)CC2)cc1` [Example 63, Ethyl N-[N-[4-[(1-acetoimidoyl-4-piperidyl)oxy]phenyl]-N-[7-amidino-2-naphthyl)methyl]sulfamoyl]carbamate dihydrochloride], in that order: more than 100 µM and 0.04 µM.
For `CC(=N)N1CCC(Oc2ccc(N(Cc3ccc4ccc(C(=N)N)cc4c3)S(=O)(=O)c3ccc(C(=O)O)cc3)cc2)CC1` [Example 74, 4-[N-[4-[(1-Acetoimidoyl-4-piperidyl)oxy]phenyl]-N-[(7-amidino-2-naphthyl)methyl]sulfamoyl]benzoic acid dihydrochloride], in that order: more than 100 µM and 0.09 µM.
Turning to `CNS(=O)(=O)N(Cc1ccc2ccc(C(=N)N)cc2c1)c1ccc(OC2CCN(C(C)=N)CC2)cc1` [Example 79, N-[4-[(1-Acetoimidoyl-4-piperidyl)oxy]phenyl]-N-[(7-amidino-2-naphthyl)methyl]-N'-methylsulfamide dihydrochloride], the IC (2-fold clotting time) was more than 100 µM at bovine thrombin and 0.05 µM in experiment [1]. Also, in experiment [2], the midpoint of inhibition, the IC50, lay at 91 nM.
As for `CCOC(=O)N(CC(=O)O)S(=O)(=O)N(Cc1ccc2ccc(C(=N)N)cc2c1)c1ccc(OC2CCN(C(C)=N)CC2)cc1` [Example 86, N-[N-[4-[(1-Acetoimidoyl-4-piperidyl)oxy]phenyl]-N-[(7-amidino-2-naphthyl)methyl]sulfamoyl]-N-ethoxycarbonylglycine dihydrochloride], the IC (2-fold clotting time) at bovine thrombin was more than 100 µM; in experiment [1] (setting [3]), 0.04 µM.
Consider `CCOC(=O)CNS(=O)(=O)N(Cc1ccc2ccc(C(=N)N)cc2c1)c1ccc(OC2CCN(C(C)=N)CC2)cc1` [Example 88, Ethyl N-[N-[4-[(1-acetoimidoyl-4-piperidyl)oxy]phenyl]-N-[(7-amidino-2-naphthyl)methyl]sulfamoyl]glycinate dihydrochloride], for which the IC (2-fold clotting time) was more than 100 µM at bovine thrombin and 0.04 µM in experiment [1]. In experiment [2], this compound showed an IC50 of 47 nM.
